Where “and” joins values, the source holds several entries; their conditions need not be identical. Identical values can stand only once.
Columns and labels:
PvNMT = PvNMT (Plasmodium vivax, UniProt A5K1A2); assay: NMT activity assay (CPM detection of free CoA), PvNMT; details: for IC50: PvNMT IC50, mean of two or more determinations; for SI: enzyme selectivity, HsNMT IC50/PvNMT IC50
[1] = HepG2 cytotoxicity assay (Live/Dead staining); details: human, HepG2 cells
Summary of the method: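 Live/dead fluorescence microscopy (calcein-AM and ethidium homodimer, 1 µM each) read at 72 h post-treatment. Compounds dosed at 1 to 20 µM on HepG2 cells, with washing and fresh compound every 24 h.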

P. vivax schizonts = assay: P. vivax liver stage assay, schizonts; format: cell-based, Plasmodium vivax; details: for Number of liverstage Schizonts per well: 20 µM, 8 dpi; for IC50: Plasmodium vivax, Hepatocyte, 120 h, primary human hepatocytes, treatment day 5 to 8 post-infection, isolates 2 and 3
Summary of the method: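 Compound exposure ran days 5–8 post-infection with daily refeeding, dose-response up to 20 µM, MMV390048 at 20 µM as positive control. Host cells were single-lot primary human hepatocytes infected with freshly dissected P. vivax sporozoites; fixed cultures stained with anti-PvUIS4 and DAPI, schizonts quantified by confocal microscopy.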

P. vivax hypnozoites = assay: P. vivax liver stage assay, hypnozoites; format: cell-based, Plasmodium vivax; details: for Hypnozoites per well: Isolate 2, replicate wells (Figure 6d); for Number of liverstage hypnozoites per well: 8 dpi; for IC50: Hepatocyte, 120 h, primary human hepatocytes, treatment day 5 to 8 post-infection, isolate 2
Summary of the method: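 Hypnozoite read-out by confocal imaging of PvUIS4/DAPI-stained cultures at day 8 post-infection. Compound was replaced daily starting day 5 in P. vivax-infected single-donor primary human hepatocytes. Positive control: Pi4K inhibitor MMV390048, 20 µM.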

[2] = isolate 1, technical replicates (Fig. 5b)
[3] = isolate 2, technical replicates (Fig. 5b)
[4] = isolate 3, technical replicates (Fig. 5b)
[5] = 20 µM, isolate 1, technical replicates (Fig. 6C)
[6] = 20 µM, isolate 2, technical replicates (Fig. 6C)
[7] = 20 µM, isolate 3, technical replicates (Fig. 6C)

Sequence of PvNMT (A5K1A2 entry or part of it): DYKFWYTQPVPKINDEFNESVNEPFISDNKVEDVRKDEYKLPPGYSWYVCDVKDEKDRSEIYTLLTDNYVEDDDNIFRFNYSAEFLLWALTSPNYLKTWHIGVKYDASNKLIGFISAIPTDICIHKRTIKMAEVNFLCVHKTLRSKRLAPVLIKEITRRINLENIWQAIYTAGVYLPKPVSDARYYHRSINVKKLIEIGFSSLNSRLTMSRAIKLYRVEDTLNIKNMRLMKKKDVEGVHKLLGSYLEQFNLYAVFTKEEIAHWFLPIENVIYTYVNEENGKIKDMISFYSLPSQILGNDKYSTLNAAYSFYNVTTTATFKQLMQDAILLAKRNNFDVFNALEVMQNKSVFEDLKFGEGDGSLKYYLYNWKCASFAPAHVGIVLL

Row | Structure (SMILES) | IC50 (PvNMT) [µM] | IC50 at 48 h [1] [µM] | Number of liverstage Schizonts per well (P. vivax schizonts; [2]) | Number of liverstage Schizonts per well (P. vivax schizonts; [3]) | Number of liverstage Schizonts per well (P. vivax schizonts; [4]) | Schizonts per well (P. vivax schizonts; Isolate 2, 1.25 uM) | Schizonts per well (P. vivax schizonts; Isolate 2, 2.5 uM) | Schizonts per well (P. vivax schizonts; Isolate 2, 5 uM) | Schizonts per well (P. vivax schizonts; Isolate 3, 1.25 uM) | Schizonts per well (P. vivax schizonts; Isolate 3, 2.5 uM) | Schizonts per well (P. vivax schizonts; Isolate 3, 5 uM) | IC50 (P. vivax schizonts) [µM] | schizonts (fold change to DMSO) mean diff (P. vivax schizonts; isolate 1, 20 µM) | schizonts (fold change to DMSO) mean diff (P. vivax schizonts; isolate 2, 20 µM) | schizonts (fold change to DMSO) mean diff (P. vivax schizonts; isolate 3, 20 µM) | Hypnozoites per well (P. vivax hypnozoites; 1.25 uM) | Hypnozoites per well (P. vivax hypnozoites; 2.5 uM) | Hypnozoites per well (P. vivax hypnozoites; 5 uM) | Hypnozoites per well (P. vivax hypnozoites; 10 uM) | Number of liverstage hypnozoites per well (P. vivax hypnozoites; [5]) | further results
1 | Cc1nn(C)c(C)c1CCOc1cc(F)ccc1-c1cccc(OCCN(C)C)c1 [Compound 26c] | 0.0294 | > 20 | 0 per well | 3 per well and 0 per well (2×) | 2 per well and 1 per well | 14 per well and 13 per well and 12 per well | 10 per well and 15 per well and 13 per well | 7 per well and 12 per well and 8 per well | 11 per well and 9 per well | 6 per well and 10 per well | 7 per well and 5 per well | 2.8 to 4.2 | 1.000 | 0.9434 | 0.8977 | 7 and 11 and 8 | 6 and 5 and 7 | 6 (2×) and 3 | 3 and 2 and 7 | 4 per well and 0 per well (2×) | SI (PvNMT): 162.3; Schizonts per well (P. vivax schizonts; Isolate 2, 10 uM): 5 per well and 3 per well and 6 per well; Schizonts per well (P. vivax schizonts; Isolate 3, 10 uM): 4 per well and 2 per well; Schizonts per well (P. vivax schizonts; Isolate 3, 20 uM (Fig. 5c-d)): 2 per well and 1 per well; Number of liverstage hypnozoites per well (P. vivax hypnozoites; [6]): 4 per well and 0 per well (2×); Number of liverstage hypnozoites per well (P. vivax hypnozoites; [7]): 0 per well (2×) and 1 per well; Hypnozoites per well (P. vivax hypnozoites; 20 uM): 4 and 0 (2×); IC50 (P. vivax hypnozoites; Plasmodium vivax): 4.2 µM; hypnozoites (fold change to DMSO) mean diff (P. vivax hypnozoites; isolate 1, 20 µM): 0.923; hypnozoites (fold change to DMSO) mean diff (P. vivax hypnozoites; isolate 2, 20 µM): 0.862
2 | Cc1n[nH]c(C)c1CCOc1cc(F)ccc1-c1cccc(OCCN(C)C)c1 [Compound 26i] | 0.242 | > 20 | 2 per well (2×) and 0 per well | 2 per well (2×) and 4 per well | 3 per well and 2 per well | 14 per well and 13 per well | 14 per well and 11 per well and 12 per well | 10 per well and 9 per well and 7 per well | 12 per well and 13 per well | 10 per well and 9 per well | 8 per well and 9 per well | 3.3 to 5.2 | 0.933 | 0.8491 | 0.8295 | 10 and 7 and 12 | 7 and 9 and 14 | 10 and 7 and 12 | 8 and 12 and 14 | 8 per well and 6 per well (2×) | SI (PvNMT): 57; Schizonts per well (P. vivax schizonts; Isolate 2, 20 uM (Fig. 5c-d)): 2 per well and 4 per well; Schizonts per well (P. vivax schizonts; Isolate 3, 20 uM (Fig. 5c-d)): 3 per well and 2 per well; Number of liverstage hypnozoites per well (P. vivax hypnozoites; [6]): 8 per well and 6 per well (2×); Number of liverstage hypnozoites per well (P. vivax hypnozoites; [7]): 0 per well; Hypnozoites per well (P. vivax hypnozoites; 20 uM): 8 and 6 (2×); IC50 (P. vivax hypnozoites; Plasmodium vivax): 11 µM; hypnozoites (fold change to DMSO) mean diff (P. vivax hypnozoites; isolate 1, 20 µM): 1.000; hypnozoites (fold change to DMSO) mean diff (P. vivax hypnozoites; isolate 2, 20 µM): 0.310
3 | c1cncc(CCOc2ccc3ccccc3c2-c2ccnc(N3CCNCC3)c2)c1 [Compound 30c] | 0.248 | > 20 | 0 per well (2×) and 6 per well | 3 per well and 4 per well and 6 per well | 1 per well and 3 per well | 12 per well and 14 per well and 13 per well | 9 per well and 14 per well and 11 per well | 7 per well and 10 per well and 9 per well | 13 per well and 10 per well | 12 per well and 9 per well | 7 per well and 10 per well | 2.7 to 4.9 | 0.900 | 0.7547 | 0.8636 | 8 and 15 and 7 | 5 and 6 and 12 | 0 and 5 and 13 | 5 and 0 and 4 | 0 per well and 1 per well and 4 per well | Schizonts per well (P. vivax schizonts; Isolate 2, 10 uM): 4 per well and 5 per well and 6 per well; Schizonts per well (P. vivax schizonts; Isolate 2, 20 uM (Fig. 5c-d)): 3 per well and 4 per well and 6 per well; Number of liverstage hypnozoites per well (P. vivax hypnozoites; [6]): 4 per well (2×) and 1 per well; Number of liverstage hypnozoites per well (P. vivax hypnozoites; [7]): 0 per well; Hypnozoites per well (P. vivax hypnozoites; 20 uM): 4 (2×) and 1; IC50 (P. vivax hypnozoites; Plasmodium vivax): 3.8 µM; inhibition at 20 µM (P. vivax hypnozoites; Plasmodium vivax, 20 µM): > 75%; hypnozoites (fold change to DMSO) mean diff (P. vivax hypnozoites; isolate 1, 20 µM): 0.939; hypnozoites (fold change to DMSO) mean diff (P. vivax hypnozoites; isolate 2, 20 µM): 0.690

Source: publication PMC10480161, “Identification of potent and selective N-myristoyltransferase inhibitors of Plasmodium vivax liver stage hypnozoites and schizonts” (Nature Communications, 2023)
